Measurements from patent US6660768B2, “Parasiticidal compositions and methods of use” (Schering-Plough Animal Health Corporation, priority 2001, dated 2003).

Assays:
[1] = Example 3B: solubility of permethrin in PM (propylene glycol monomethyl ether), DM (diethylene glycol monomethyl ether) and PM or DPM (dipropylene glycol monomethyl ether)/d-limonene mixtures at low temperatures, seeded
Description: These solutions were poured into 100 mL tubes with screw top caps. These tubes were placed in the cold water bath and allowed to come to equilibrium at the temperature of the bath. […] The seeded preparations were then thoroughly shaken, replaced in the bath and allowed to remain in the bath for a 24 hour period. The preparations were then examined for crystallization, then again thoroughly agitated and replaced in the bath for an additional time period. Samples of the supernatant were removed after additional crystallization had occurred.
The solvent mixtures tested were: dipropylene glycol monomethyl ether/d-limonene and propylene glycol monomethyl ether/d-limonene.
These solvent mixtures were evaluated at ratios of 2:1, 1:1, 1:2, and then at 8:2 and 9:1 (the first number refers to one of the glycol ethers, the second number refers to d-limonene).

[2] = Example 3C: solubility of 30% permethrin in d-limonene/propylene glycol monomethyl ether mixtures at -15° C.; type: physicochemical; conditions: initial 30% permethrin
Description: The temperature was regulated to −15° C. The solutions were placed in the bath and allowed to crystallize and reach equilibrium.

[3] = Example 3D: solubility of permethrin in propylene glycol monomethyl ether at 20° C. after crystallization at 0° C.; type: physicochemical
Description: The solution was placed in the bath, and continually stirred. The bath temperature was lowered to 0° C. After crystallization occurred in the solution, the bath temperature setting was raised to 20° C. and the stirred slurry was allowed to equilibrate over a three-day period. After this time, samples of the supernatant were pulled on consecutive days. The crystals were separated from the liquid layer by filtration, and the crystals were washed with petroleum ether. […] The crystals were washed to remove any residual solution that might contaminant their analysis.

Compound: CC1(C)C(C=C(Cl)Cl)C1C(=O)OCc1cccc(Oc2ccccc2)c1 (stereo not drawn) [permethrin]
- % Total Permethrin ([1]; 70% permethrin in DPM/d-limonene, 50% d-limonene of solvent mixture, 0° C.): 65.66%
- % Total Permethrin ([1]; 70% permethrin in DPM/d-limonene, 50% d-limonene of solvent mixture, 5° C.): 68.48%
- % Total Permethrin ([1]; 70% permethrin in DPM/d-limonene, 50% d-limonene of solvent mixture, 10° C.): 66.70%
- % Total Permethrin ([1]; 70% permethrin in DPM/d-limonene, 67% d-limonene of solvent mixture, 0° C.): 66.05%
- % Total Permethrin ([1]; 70% permethrin in DPM/d-limonene, 67% d-limonene of solvent mixture, 5° C.): 69.38%
- % Total Permethrin ([1]; 70% permethrin in DPM/d-limonene, 67% d-limonene of solvent mixture, 10° C.): 67.98%
- % Total Permethrin ([1]; 70% permethrin in DPM/d-limonene, 100% d-limonene of solvent mixture, 0° C.): 64.61%
- % Total Permethrin ([1]; 70% permethrin in DPM/d-limonene, 100% d-limonene of solvent mixture, 5° C.): 66.05%
- % Total Permethrin ([1]; 70% permethrin in DPM/d-limonene, 100% d-limonene of solvent mixture, 10° C.): 69.30%
- % Total Permethrin ([1]; 70% permethrin in PM/d-limonene, 0% d-limonene of solvent mixture, 0° C.): 57.91%
- % Total Permethrin ([1]; 70% permethrin in PM/d-limonene, 0% d-limonene of solvent mixture, 5° C.): 64.79%
- % Total Permethrin ([1]; 70% permethrin in PM/d-limonene, 10% d-limonene of solvent mixture, 10° C.): 66.70%
- % Total Permethrin ([1]; 70% permethrin in PM/d-limonene, 20% d-limonene of solvent mixture, 10° C.): 66.92%
- % Total Permethrin ([1]; 70% permethrin in PM/d-limonene, 33% d-limonene of solvent mixture, 0° C.): 65.20%
- % Total Permethrin ([1]; 70% permethrin in PM/d-limonene, 33% d-limonene of solvent mixture, 5° C.): 67.36%
- % Total Permethrin ([1]; 70% permethrin in PM/d-limonene, 33% d-limonene of solvent mixture, 10° C.): 67.80%
- % Total Permethrin ([1]; 70% permethrin in PM/d-limonene, 50% d-limonene of solvent mixture, 0° C.): 65.36%
- % Total Permethrin ([1]; 70% permethrin in PM/d-limonene, 50% d-limonene of solvent mixture, 5° C.): 69.65%
- % Total Permethrin ([1]; 70% permethrin in PM/d-limonene, 50% d-limonene of solvent mixture, 10° C.): 68.40%
- % Total Permethrin ([1]; 70% permethrin in PM/d-limonene, 67% d-limonene of solvent mixture, 0° C.): 65.94%
- % Total Permethrin ([1]; 70% permethrin in PM/d-limonene, 67% d-limonene of solvent mixture, 5° C.): 68.33%
- % Total Permethrin ([1]; 70% permethrin in PM/d-limonene, 100% d-limonene of solvent mixture, 0° C.): 64.61%
- % Total Permethrin ([1]; 70% permethrin in PM/d-limonene, 100% d-limonene of solvent mixture, 5° C.): 66.05%
- % permethrin remaining in solution ([1]; DM, 5° C., Original % permethrin 50): 46.00%
- % permethrin remaining in solution ([1]; DM, 5° C., Original % permethrin 55): 51.74%
- % permethrin remaining in solution ([1]; DM, 5° C., Original % permethrin 60): 55.09%
- % permethrin remaining in solution ([1]; DM, 5° C., Original % permethrin 65): 60.22%
- % permethrin remaining in solution ([1]; DM, 10° C., Original % permethrin 50): 46.80%
- % permethrin remaining in solution ([1]; DM, 10° C., Original % permethrin 55): 50.72%
- % permethrin remaining in solution ([1]; DM, 10° C., Original % permethrin 60): 56.17%
- % permethrin remaining in solution ([1]; DM, 20° C., Original % permethrin 50): 50.55%
- % permethrin remaining in solution ([1]; DM, 20° C., Original % permethrin 55): 55.14%
- % permethrin remaining in solution ([1]; DM, 20° C., Original % permethrin 60): 60.05%
- % permethrin remaining in solution ([1]; DM, 20° C., Original % permethrin 65): 64.85%
- % permethrin remaining in solution ([1]; DM, 20° C., Original % permethrin 75): 74.20%
- % permethrin remaining in solution ([1]; DM, 25° C., Original % permethrin 50): 49.43%
- % permethrin remaining in solution ([1]; DM, 25° C., Original % permethrin 55): 53.98%
- % permethrin remaining in solution ([1]; DM, 25° C., Original % permethrin 60): 61.10%
- % permethrin remaining in solution ([1]; DM, 25° C., Original % permethrin 65): 64.25%
- % permethrin remaining in solution ([1]; DM, 25° C., Original % permethrin 75): 74.53%
- % permethrin remaining in solution ([1]; PM, 5° C., Original % permethrin 50): 46.61%
- % permethrin remaining in solution ([1]; PM, 5° C., Original % permethrin 55): 52.71%
- % permethrin remaining in solution ([1]; PM, 5° C., Original % permethrin 60): 56.69%
- % permethrin remaining in solution ([1]; PM, 5° C., Original % permethrin 65): 61.50%
- % permethrin remaining in solution ([1]; PM, 5° C., Original % permethrin 75): 70.89%
- % permethrin remaining in solution ([1]; PM, 10° C., Original % permethrin 60): 59.08%
- % permethrin remaining in solution ([1]; PM, 10° C., Original % permethrin 65): 61.63%
- % permethrin remaining in solution ([1]; PM, 10° C., Original % permethrin 75): 72.22%
- % permethrin remaining in solution ([1]; PM, 20° C., Original % permethrin 50): 50.60%
- % permethrin remaining in solution ([1]; PM, 20° C., Original % permethrin 55): 55.54%
- % permethrin remaining in solution ([1]; PM, 20° C., Original % permethrin 60): 61.27%
- % permethrin remaining in solution ([1]; PM, 20° C., Original % permethrin 65): 66.25%
- % permethrin remaining in solution ([1]; PM, 20° C., Original % permethrin 75): 76.84%
- % permethrin remaining in solution ([1]; PM, 25° C., Original % permethrin 50): 51.28%
- % permethrin remaining in solution ([1]; PM, 25° C., Original % permethrin 55): 56.19%
- % permethrin remaining in solution ([1]; PM, 25° C., Original % permethrin 60): 60.99%
- % permethrin remaining in solution ([1]; PM, 25° C., Original % permethrin 65): 66.71%
- % permethrin remaining in solution ([1]; PM, 25° C., Original % permethrin 75): 75.82%
- % permethrin in solution ([2]; 0% d-limonene in formula): 23.57%
- % permethrin in solution ([2]; 20% d-limonene in formula): 24.78%
- % permethrin in solution ([2]; 33% d-limonene in formula): 25.52%
- % permethrin in solution ([2]; 50% d-limonene in formula): 27.20%
- % permethrin in solution ([2]; 67% d-limonene in formula): 27.51%
- % permethrin in solution ([2]; 100% d-limonene in formula): 25.93%
- % Permethrin ([3]; Assay of Crystals (filtered, washed), as the cis isomer): 100% as the cis isomer
- % Permethrin ([3]; Initial Assay of 70% Solution in propylene glycol monomethyl ether): 72.86%
- solubility of permethrin ([3]; in propylene glycol monomethyl ether, 20° C.): greater than 70%
- % Permethrin ([3]; supernatant, propylene glycol monomethyl ether, 20° C., 2nd Day after Equilibrium Reached): 72.96%
- % Permethrin ([3]; supernatant, propylene glycol monomethyl ether, 20° C., Assay after Equilibrium Reached): 72.93%
